Assays:
[1] = Acute toxicity (single oral administration to mice); details: mouse, in vivo, read-out: Toxicity LD 50
Source text: Representative compounds of formulae I and II have been investigated with respect to their mucosa-protective and gastric acid secretion-inhibiting properties as well as to their toxicity.
(§1) In the following Table there are given for a series of representative compounds of formula I and for two compounds of formula II the results of the testing with respect to their mucosa-protective activity ("ethanol test") and to their gastric acid secretion-inhibiting activity. Moreover, this Table contains data concerning the acute toxicity (LD50 in the case of single oral administration to mice).

[2] = system: ethanol-induced lesions of the mucous membrane of the stomach; assay: Ethanol test (mucosa-protective activity); format: in vivo, male rats; details: rats; oral, 30 minutes prior to absolute ethanol (1 ml per rat); dosage reducing by 50% the number of lesions vs control; read-out: Ethanol Test ID 50
Method: The experimental procedure described hereinafter has been used to determine the mucosa-protective property:
The oral administration of absolute ethanol to male rats in a dosage of 1 ml per rat leads within 1 hour to bloody lesions of the mucous membrane of the stomach. Various dosages of the substances to be tested (suspended in 0.125% carboxymethylcellulose) or of the vehicle alone (control) are administered to the rats orally (1 ml per rat) 30 minutes prior to the treatment with ethanol. One hour after the administration of the ethanol the animals are sacrificed, their stomachs are examined for the presence of lesions, and the number and size of such lesions are mentioned. The ID50 is that dosage of a test substance which reduces by 50% the number of lesions in comparison to the control group.
as §1

gastric acid secretion = assay: Gastric acid secretion-inhibiting activity (pylorus ligation, Shay et al.); format: in vivo, male rats; details: Rattus norvegicus, 5 h; pylorus-ligated rats; intraduodenal; five hours after ligation; dosage giving 50% decrease of the secretion vs control; read-out: Gastric acid secretion-inhibition ID 50
Method: The test procedure described hereinafter was used to determine the gastric acid secretion-inhibiting activity:
The pylorus of male rats is ligated under slight ether narcosis in accordance with the procedure described by Shay et al. in Gastroenterology 5, 43 (1945). The substances to be tested, suspended in 0.5% carboxymethylcellulose, are administered intraduodenally. Control animals are treated only with the vehicle. Five hours after the ligation the animals are sacrificed, the volume and acidity of their gastric fluid are determined, and the values obtained are compared with those of control animals. The ID50 is that dosage of a test substance which brings about a 50% decrease of the secretion in comparison to the control animals.
as §1

SMILES | LD50 [1] | ED50 [2] | ED50 (gastric acid secretion)
COCCOCCOC(=O)C#CC(O)/C=C/c1ccc(OC)cc1 (stereo not drawn) [J, 2(2-Methoxyethoxy)ethyl (E)4-hydroxy-6-(4-methoxy-phenyl)-5-hexen-2-ynoate] | > 4000 mg/kg | 3.4 mg/kg | 
COC(=O)C#CC(O)/C=C/c1ccc(OC)cc1 (stereo not drawn) [I, Methyl (E)4-hydroxy-6-(4-methoxyphenyl)-5-hexen-2-ynoate] | 1000 to 2000 mg/kg | 2.1 mg/kg | 
COCCOCCOC(=O)C#CC(=O)/C=C/c1ccc(OC)cc1 [H, 2(2-Methoxyethoxy)ethyl (E)6-(4-methoxyphenyl)-4-oxo-5-hexen-2-ynoate] | 2500 to 5000 mg/kg | 2.7 mg/kg | 
COc1ccc(/C=C/C(=O)/C=C\C(=O)O)cc1 [F, (2Z,5E)6-(4-Methoxyphenyl)-4-oxo-2,5-hexadienoic acid] | 156 to 312 mg/kg | 0.7 mg/kg | 
COc1ccc(/C=C/C(=O)/C=C/C(=O)O)cc1 [B, (E,E)6-(4-Methoxyphenyl)-4-oxo-2,5-hexadienoic acid] | 312 to 625 mg/kg | 0.7 mg/kg | 
COCCOCCOC(=O)/C=C/C(=O)/C=C/c1cccc(OC)c1 [G, 2(2-Methoxyethoxy)ethyl (E,E)6-(3-methoxyphenyl)-4-oxo-2,5-hexadienoate] | 500 to 1000 mg/kg | 2.7 mg/kg | 
O=C(O)/C=C/C(=O)/C=C/c1ccc(F)cc1 [E, (E,E)6-(4-Fluorophenyl)-4-oxo-2,5-hexadienoic acid] | 312 to 625 mg/kg | 1.9 mg/kg | 
COc1cccc(/C=C/C(=O)/C=C/C(=O)O)c1 [A, (E,E)6-(3-Methoxyphenyl)-4-oxo-2,5-hexadienoic acid] | 312 to 625 mg/kg | 0.8 mg/kg | 9 mg/kg
COc1ccc(/C=C/C(=O)C#CC(=O)O)cc1 [D, (E)6-(4-Methoxyphenyl)-4-oxo-5-hexen-2-ynoic acid] | 500 to 1000 mg/kg | 0.5 mg/kg | 
COC(=O)/C=C\C(=O)/C=C/c1ccc(OC)cc1 [C, Methyl (2Z,5E)6-(4-methoxyphenyl)-4-oxo-2,5-hexadienoate] | 625 to 1250 mg/kg | 1 mg/kg | 
